The results in this text go back to publication PMC6895199, “A new antiviral scaffold for human norovirus identified with computer-aided approaches on the viral polymerase” (Scientific Reports, 2019).

Like-named read-outs stand apart in the source and are kept apart here.

One data set has as its system MNV. The experiment in a line: MNV CPE reduction assay (MTS) in RAW 264.7 cells. The format is cell-based, mouse norovirus (MNV-1.CW1). The settings on record: Norovirus, RAW264.7, in Mus musculus. How it is done: The newly prepared compounds 2–7 and 34–35 were evaluated for their antiviral effect against the genogroup V mouse norovirus (MNV) using the mouse macrophage cell line RAW264.7. This assay evaluates the ability of the compounds to protect infected cells from the virus-induced cytopathic effect, thus being suitable to identify inhibition of virus replication at every step of the virus life cycle, and representing a robust cellular assay available for the rapid evaluation of potential norovirus inhibitors. Compounds identified using MNV have shown effects against HuNoV in vitro and in vivo, as in the case of nucleoside RdRp inhibitor 2′-C-methylcytidine (2CMC)[34]–[36]. Unfortunately, despite not presenting the aqueous solubility issues we had previously encountered for 1[29], no significant antiviral effect could be observed in this assay for the new compounds up to the maximum concentration tested. The new structural modifications, despite retaining inhibition of the RdRp in an isolated enzyme activity assay and showing no cytotoxic effects at the test concentrations in the MNV antiviral assay (Supplementary Table S1), are correlated with a lack of antiviral activity. As these new structures present the same limitation of most non-nucleoside HuNoV polymerase inhibitors reported so far[22], we were prompted to apply a different computer-aided strategy to further modify the scaffold of 1, with the aim to achieve an antiviral effect in cellular systems. […]
Since the main scope of this work was to find new norovirus inhibitors which show antiviral effects against both the HuNoV RdRp and in norovirus-infected cells, priority was given to the evaluation of most of the new molecules for their antiviral activity against MNV in infected RAW cells. The nucleoside 2′-C-methylcytidine was used as positive control. The test compounds were evaluated at eight different concentrations (range 0.6–100 µM) and their ability to reduce the virus-induced cytopathic effect was assessed.
(§1) Cells and virus: MNV (virus strain MNV-1.CW1) was propagated in RAW 264.7 cells grown in DMEM (Life Technologies, Gent, Belgium) supplemented with 10% or 2% FBS, 2 mM L-glutamine, 20 mM HEPES, 0.075 g/L sodium bicarbonate, 1 mM sodium pyruvate, 100 U penicillin/mL and 100 µg/mL streptomycin at 37 °C in a humidified atmosphere of 5% CO2. The human norovirus GI.1 replicon harboring gastric tumor-1 cell line (HGT-NV) (kindly provided by Dr. Ian Goodfellow, University of Cambridge) was maintained in DMEM supplemented with 10% FBS, 2mM L-glutamine, 0.075 g/L sodium bicarbonate and 1.0 mg/ml of Geneticin (G418; Life Technologies), at 37 °C in a humidified atmosphere of 5% CO2[34].
Antiviral assay with MNV: The antiviral activity of the Compounds was determined using an MTS [3-(4,5-dimethylthiazol-2-yl)-5-(3-carboxymethoxyphenyl)-2-(4-sulfophenyl)-2H-tetrazolium]-based cytopathic effect (CPE) reduction assay. […] Then, a MTS-phenazinemethosulfate (MTS/PMS) stock solution [(2 mg/mL MTS (Promega, Leiden, The Netherlands) and 46 µg/mL PMS (Sigma–Aldrich, Bornem, Belgium) in PBS at pH 6–6.5)] was diluted 1/20 in MEM (Life Technologies, Gent, Belgium) and 75 µL were added to each well. After 2 h, the optical density (OD) was read at 498 nm. The %CPE reduction was calculated as [(ODtreated)MNV − ODVC]/[ODCC − ODVC] × 100, where ODCC represents the OD of the uninfected untreated cells, whereas ODVC and (ODtreated)MNV represent the OD of infected untreated cells and virus-infected cells treated with a compound concentration, respectively. The 50% effective concentration (EC50) was defined as the compound concentration that protected 50% of the cells from virus-induced CPE[34].

A short description of data set [1]: Cytotoxicity by the MTS method on uninfected cells. The format is cell-based. The note with it: mouse, uninfected RAW 264.7 cells. The method, then:
Cytotoxicity: The cytotoxicity of the Compounds was evaluated by the MTS method, by exposing uninfected cells to the same concentrations of compounds for 3 days. The %cell viability was calculated as (ODtreated/ODCC) × 100, where ODCC is the OD of uninfected untreated cells and ODtreated are uninfected cells treated with compound. The CC50 was defined as the compound concentration that reduces the number of viable cells by 50%[34].

In a further data set the test system is HuNoV GI.1 replicon. The data set can be described thus: HuNoV GI replicon assay (HGT-NV cells, qRT-PCR). It is filed as cell-based, human norovirus GI.1. The method, then: Given that in this system the gene encoding for the major capsid protein is replaced by a neomycin resistance gene, no new virus particles will be produced but the non-structural proteins are expressed and the replication of the genomic RNA can be studied.
as §1
Antiviral assay with the HGT-NV replicon: The inhibitory effect of Compounds on human norovirus replication was assessed by quantification of the levels of HuNoV GI replicon RNA and of the reference (housekeeping) gene β-actin mRNA [by quantitative reverse transcription polymerase chain reaction (qRT-PCR)]. To this end, HGT cells (2000 cells/well) were seeded in 96-well plates, in complete DMEM without the selection marker G418. Following an incubation period of 24 h, a serial dilution of rupintrivir was added to the cultures. After 72 h of incubation, cell monolayers were washed with phosphate-buffered saline (PBS) and collected for quantification of RNA load by qRT-PCR. Intracellular RNA was extracted from cells using the cell-to-cDNA lysis buffer (Ambion, Life Technologies). For detection of HuNoV GI replicon RNA, forward (5′-CCG GCT ACC TGC CCA TTC-3′), reverse (5′-CCAGATCATCCTGATCGACAAG-3′) primers and probe (5′-FAM-ACATCGCATCGAGCGAGCACGTAC-TAMRA-3′) for the neomycin gene were used. For detection of β-actin mRNA, forward (5′-GGCATCCACGAAACTACCTT-3′), reverse (5′-AGCACTGTGTTGGCGTACAG-3′) primers and probe (5′-HEX-ATCATGAAGTGTGACGTGGACATCCG-BHQ1–3′) were used. One-step qRT-PCR was performed in a 20 µL reaction mixture containing 10 µl 2X iTaq Universal SYBR® Green one step reaction mix (Bio-rad, California, USA), 5.17 µl RNAse free water, 0.5 µl of iScript reverse transcriptase (Bio-rad, California, USA), 4 µl of the template RNA and either 300 nM of HuNoV GI replicon primers and probe, 300 nM of β-actin primers and 200 nM of probe. Cycling conditions were: reverse transcription at 50 °C for 10 min, initial denaturation at 95 °C for 3 min, followed by 40 cycles of denaturation at 95 °C for 15 s, annealing and extension at 60 °C for 30 seconds (Roche Lightcycler®96, Roche Diagnostics, Belgium). To determine the relative expression levels of HuNoV GI replicon RNA, β-actin was used as a normalizer and ratios were calculated using the Pfaffl method. The Expression Ratio (HuNoV GI Replicon/β-actin) was calculated as: Expression Ratio = (E HuNoV)^ΔCT, HuNoV (CC – TC)/(Eβ-actin)^ΔCT, β-actin (CC – TC), where E HuNoV and Eβ-actin represent the amplification efficiency (E = 10^–1/slope) for the HuNoV GI replicon and β-actin qRT-PCR reactions, respectively. ΔCT, HuNoV (CC – TC) is the Ct of untreated control cells (CC) minus the Ct of cells treated with a compound concentration (TC) obtained with HuNoV GI replicon primers and probe. ΔCT, β-actin (CC – TC) is the Ct of untreated control cells (CC) minus the Ct of cells treated with a compound concentration (TC) obtained with β-actin primers and probe. Efficiency values (E HuNoV and Eβ-actin) were determined for each qRT-PCR reaction.
A general note: Replicon systems follow genome replication, usually without infectious particles.

A further data set concerns the target HuNoV (GII.4) RdRp (Norovirus Hu/GII.4/Sydney/NSW0514/2012/AU, UniProt K4L8Z7). The data set can be described thus: Quantitative fluorescent RdRp activity assay (PicoGreen, poly(C) template). It is filed as biochemical, human norovirus Sydney 2012. How it is done: The newly synthesised compounds, including the carboxylate ester derivatives 34–35 and 7 from the Core Hopping approach, were evaluated for their enzymatic inhibition of human norovirus Sydney 2012 (HuNoV (GII.4)) RdRp activity in vitro, using a quantitative fluorescent assay. Compounds were tested at six different concentrations (concentration range examined: 0.1–100 µM) and compared to the relative activity of mock treated samples containing the vehicle only (0.5% DMSO [vol/vol]). PPNDS [Pyridoxal-5′-phosphate-6-(2′-naphthylazo-6′-nitro-4′,8′-disulfonate) tetrasodium salt], a previously reported potent inhibitor of NoV RdRp activity, and 1 were used as positive controls. Dose-dependent inhibitory response curves were used to establish IC50 values for the eight test compounds, as reported in Table 1 (see also Supplementary Fig. S1).
The newly prepared compounds 48–60 were initially evaluated against norovirus Sydney 2012 RdRp activity in vitro using a quantitative fluorescent assay. Compounds were tested at a fixed concentration of 20 µM and compared to the relative activity of mock treated samples. PPNDS and 1 were used as positive controls. […] These two rings are structural features present in 1 and in one of its derivatives we have previously reported. […] From these observations, the thiophene ring appears not to influence inhibitory activity. Derivatives in which the central core of 48 has been used to link the two terminal hydrophobic rings of 1 or of its derivatives we have previously reported[25] (55, 57, 58) appear to retain the RdRp inhibitory activity found for 48 (~20% at 20 µM). A similar effect is obtained when a sulfonyl group, as in our hit 1, is used to link ring 2, regardless if it is a thiazole (59) or an unsubstituted phenyl ring (60), to the rest of the molecule. […] Overall, even if showing a reduced biochemical activity in comparison with 1, some of the new derivatives can be considered as modest HuNoV RdRp inhibitors at 20 µM.
Fluorescent RdRp activity assays were carried out as previously described[12],[29]. Briefly, RdRp activity was quantified by monitoring the formation of double-stranded RNA (dsRNA) from a single stranded homopolymeric template, poly(C) (Sigma Aldrich), using the fluorescent dye PicoGreen (Life Technologies, Carlsbad, CA, USA). RdRp assays were performed in 384-well plates, and each reaction mixture contained 400 ng enzyme, 45 μM GTP, 10 ng/μL poly(C) RNA, 2.5 mM MnCl2, 5 mM dithiothreitol, (DTT), 0.01% bovine serum albumin (BSA), and 0.005% Tween 20 in 20 mM Tris-HCl, pH 7.5, with a final reaction volume of 25 μL. The PPNDS and compound 1 were used as a positive controls. RdRps were incubated for 10 mins at 30 °C in the presence of the test compounds or the compound vehicle DMSO (0.5% vol/vol) before addition into the reaction mixture, which was then allowed to run 15 min at 30 °C then terminated with 10 mM EDTA, followed by PicoGreen staining and dsRNA quantitation. GraphPad Prism V6.05 (La Jolla, CA, USA) was used to plot the IC50 values. A secondary gel-based polymerase activity assay was used as a counter-screen as described below, to exclude the possibility of RdRp activity enhancement. Primed elongation activity was examined in a gel-based assay as previously described[12],[29] using the RNA template (PE44-NoV). Gels were imaged using BioRad (Hercules, CA, U.SA) Geldoc Universal Hood II, running BioRad Image Lab software, V4.1, build 16.

[2] abbreviates: Table 2, RAW 264.7, range 0.6–100 µM, at least three independent experiments.
Setting [3] is: Table 2, at least three independent experiments.
Setting [4] is: Norwalk virus, HGT-1, 72 h, read-out: EC50 values (column head printed 'M'), HuNoV GI replicon in HGT-1 cells, replicon RNA by qRT-PCR.
[5] abbreviates: Supplementary Table S1, at least two independent experiments.

What is called EC50 is the concentration needed to bring the measured effect to its halfway point. What is called CC50 is the concentration giving 50% cytotoxicity. A high value points to lower toxicity to the cells. For `O=C(NC(=S)Nc1ccc(N2CCN(S(=O)(=O)c3cccs3)CC2)cc1)c1ccccc1` [Compound 59, N-((4-(4-(Thiophen-2-ylsulfonyl)piperazin-1-yl)phenyl)carbamothioyl)benzamide], the EC50 with MNV (setting [2]) worked out at 43.8 ± 16.9 µM; in the data set with HuNoV GI.1 replicon (setting [4]), 10 µM; in the data set with HuNoV GI.1 replicon (read-out: EC50 values (column head printed 'M'), HuNoV GI replicon in HGT-1 cells, 72 h, replicon RNA by qRT-PCR), 10.9 ± 11.1 µM. Further, the CC50 at 3 days in data set [1] (setting [3]) was above 100 µM. For the same compound, the “EC50 values (column head printed 'M')” value in the data set on HuNoV GI.1 replicon (HuNoV GI replicon in HGT-1 cells, 72 h, replicon RNA by qRT-PCR) is given as “low micromolar range”.
With `Cc1ccc(C(=O)NC(=S)Nc2ccc(N3CCN(C(=O)c4ccccc4)CC3)cc2)cc1` [Compound 57, N-((4-(4-Benzoylpiperazin-1-yl)phenyl)carbamothioyl)-4-methylbenzamide], the inhibition at 20 µM at HuNoV (GII.4) RdRp (20 µM, read-out: inhibition of HuNoV RdRp activity at fixed concentration) was around 20%. In the data set on MNV (setting [2]), this compound registered an EC50 above 100 µM. Besides, in data set [1] (setting [3]), the cytotoxic concentration (CC50) at 3 days was above 100 µM.
For the compound `CCOC(=O)/C=C/[C@H](C[C@@H]1CCNC1=O)NC(=O)[C@@H](CC(=O)[C@@H](NC(=O)c1cc(C)on1)C(C)C)Cc1ccc(F)cc1` [Rupintrivir, reference compound], the EC50 in the data set on HuNoV GI.1 replicon (setting [4]) was determined as 1.5 ± 0.4 µM.
On to `O=C1NN(c2ccccc2)C(=O)/C1=C/c1ccc(-c2ccc(S(=O)(=O)Nc3ncccn3)cc2)o1` [Compound 4, (E)-4-(5-((3,5-dioxo-1-phenylpyrazolidin-4-ylidene)methyl)furan-2-yl)-N-(pyrimidin-2-yl)benzenesulfonamide], for which, at HuNoV (GII.4) RdRp (100 µM, read-out: inhibition of RdRp activity at the maximum concentration tested), the inhibition at 100 µM was 15%. In addition, the concentration for a half-maximal effect (EC50) in the data set on MNV (setting [5]) was above 50 µM. Further, the CC50 at 3 days in data set [1] (setting [5]) stood at 60 ± 21 µM.
